Literature values as cited in US20230241042A1, “USE OF PENEHYCLIDINE IN TREATMENT OR PREVENTION OF VISION-IMPAIRING EYE DISEASES” (GRAND LIFE SCIENCES GROUP (WUHAN) CO., LTD., priority 2020, published 2023).

Legend:
FDM [1] = conditions: daily subconjunctival injection
FDM [2] = conditions: in vivo
[3] = system: chick modeled eyes with visual form deprivation myopia (FDM); conditions: day 8, 0.01% by mass injected into the vitreous cavity
experimental myopia = conditions: topical eye drops or oral administration

| SMILES | inhibition of the occurrence of FDM (FDM [1]) | prevention of FDM and retinal damage (FDM [2]) | also measured |
| --- | --- | --- | --- |
| C[N+]1(C)CCC(OC(=O)C(c2ccccc2)c2ccccc2)CC1.[I-] [4-DAMP] | ineffective | – | – |
| C[C@@H]1OC(=O)[C@H]2C[C@H]3CCCC[C@@H]3[C@@H](/C=C/[C@H]3CCC[C@H](C)N3C)[C@@H]12 [Himbacine] | – | certain effect in preventing FDM without retinal damage | – |
| CC[N+](C)(CC)CCOC(=O)C(O)(c1ccccc1)C1CCCCC1 (stereo not shown) [Oxypheneonium, Oxyphenonium] | – | certain effect in preventing FDM without retinal damage | – |
| CN1[C@@H]2CC[C@H]1C[C@@H](OC(=O)C(CO)c1ccccc1)C2 (stereo partly shown) [atropine] | – | certain effect in preventing FDM without retinal damage | induced myopia [3]: −2.8 D; ocular axis extension [3]: 0.21 mm |
| COc1ccccc1CNCCCCCCNCCCCCCCCNCCCCCCNCc1ccccc1OC [methoctramine] | ineffective | – | – |
| CN1CCN(CC(=O)N2c3ccccc3C(=O)Nc3cccnc32)CC1 [pirenzepine] | could inhibit the occurrence of FDM | certain effect in preventing FDM without retinal damage | – |
| OC(CCN1CCCCC1)(c1ccccc1)C1CCCCC1 (stereo not shown) [trihexyphenidyl] | – | – | prevention of the progression of experimental myopia (experimental myopia): not effective in preventing the progression of experimental myopia |
